Results published in patent US9334269B2, “Carboxamides as inhibitors of voltage-gated sodium channels” (AMGEN INC., priority 2010, dated 2016).

Target: T1, human Nav1.7 (hNav1.7) (Homo sapiens, UniProt Q15858)
T1 construct: expressed in transfected cells
Experiment: hNav1.7 whole-cell patch-clamp electrophysiology (automated PatchXpress 7000A or manual) in stably expressing 293 cells
Assay type: cell-based
Procedure, shortened: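 Stably transfected 293 cells lacking endogenous sodium channels; peak current evoked by depolarizing pulses during increasing compound concentrations, automated at ~20% fractional inactivation, or manually at −140 mV (resting) and ~20% inactivation. Block taken at steady state, corrected for rundown; IC50 by Hill fit.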

T1 sequence (Q15858 whole entry): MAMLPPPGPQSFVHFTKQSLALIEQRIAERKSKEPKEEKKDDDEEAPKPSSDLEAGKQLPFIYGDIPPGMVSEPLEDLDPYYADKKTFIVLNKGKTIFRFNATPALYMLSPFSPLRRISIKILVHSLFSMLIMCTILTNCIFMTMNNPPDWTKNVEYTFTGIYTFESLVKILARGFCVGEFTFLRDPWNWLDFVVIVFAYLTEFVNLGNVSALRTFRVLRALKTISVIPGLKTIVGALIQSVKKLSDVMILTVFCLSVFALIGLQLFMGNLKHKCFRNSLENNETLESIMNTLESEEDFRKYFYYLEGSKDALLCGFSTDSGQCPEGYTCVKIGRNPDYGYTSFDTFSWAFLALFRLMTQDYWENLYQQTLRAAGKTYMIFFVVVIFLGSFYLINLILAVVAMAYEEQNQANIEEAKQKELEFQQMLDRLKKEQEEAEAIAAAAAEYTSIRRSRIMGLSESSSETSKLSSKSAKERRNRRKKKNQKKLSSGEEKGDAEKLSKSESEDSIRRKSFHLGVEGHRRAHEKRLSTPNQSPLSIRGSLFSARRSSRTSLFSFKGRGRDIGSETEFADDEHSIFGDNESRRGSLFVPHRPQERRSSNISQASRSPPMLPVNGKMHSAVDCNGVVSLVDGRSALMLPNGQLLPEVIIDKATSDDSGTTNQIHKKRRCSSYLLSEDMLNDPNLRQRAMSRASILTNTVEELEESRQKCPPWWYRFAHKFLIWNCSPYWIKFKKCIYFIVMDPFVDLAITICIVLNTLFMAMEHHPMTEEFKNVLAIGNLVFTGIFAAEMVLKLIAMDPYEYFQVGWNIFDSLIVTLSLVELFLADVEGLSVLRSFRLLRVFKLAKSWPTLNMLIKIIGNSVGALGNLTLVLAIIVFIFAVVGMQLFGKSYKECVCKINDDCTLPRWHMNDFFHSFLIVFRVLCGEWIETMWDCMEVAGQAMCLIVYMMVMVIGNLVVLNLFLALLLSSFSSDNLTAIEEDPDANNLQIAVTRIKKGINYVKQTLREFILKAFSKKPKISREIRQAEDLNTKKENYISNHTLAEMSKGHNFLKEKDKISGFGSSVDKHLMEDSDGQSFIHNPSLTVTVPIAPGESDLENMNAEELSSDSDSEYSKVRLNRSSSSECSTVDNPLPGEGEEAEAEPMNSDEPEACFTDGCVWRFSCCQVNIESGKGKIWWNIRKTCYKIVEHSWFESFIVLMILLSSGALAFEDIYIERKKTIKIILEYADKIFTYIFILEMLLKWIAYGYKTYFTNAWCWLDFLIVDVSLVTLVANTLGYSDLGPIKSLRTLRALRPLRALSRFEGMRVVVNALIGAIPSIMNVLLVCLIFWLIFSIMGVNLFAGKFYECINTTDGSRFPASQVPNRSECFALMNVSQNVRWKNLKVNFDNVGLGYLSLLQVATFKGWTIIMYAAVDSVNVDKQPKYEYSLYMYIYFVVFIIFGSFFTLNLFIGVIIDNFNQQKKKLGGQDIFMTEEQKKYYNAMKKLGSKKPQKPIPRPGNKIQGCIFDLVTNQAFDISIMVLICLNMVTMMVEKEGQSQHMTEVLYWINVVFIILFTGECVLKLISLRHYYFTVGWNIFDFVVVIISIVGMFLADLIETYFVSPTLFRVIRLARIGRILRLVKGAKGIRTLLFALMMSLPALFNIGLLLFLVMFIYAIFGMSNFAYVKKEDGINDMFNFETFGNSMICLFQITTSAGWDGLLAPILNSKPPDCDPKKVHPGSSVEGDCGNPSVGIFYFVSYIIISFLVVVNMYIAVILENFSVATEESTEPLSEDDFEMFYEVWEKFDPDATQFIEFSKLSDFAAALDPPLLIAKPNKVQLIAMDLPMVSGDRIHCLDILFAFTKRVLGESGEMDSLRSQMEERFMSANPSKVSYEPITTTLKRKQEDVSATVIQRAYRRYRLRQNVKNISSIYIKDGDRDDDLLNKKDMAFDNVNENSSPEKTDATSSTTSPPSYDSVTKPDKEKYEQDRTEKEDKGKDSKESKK

| IC50 (average IC50, human Nav1.7) | IC50 (average IC50) | SMILES |
| --- | --- | --- |
| 9.42 µM |  | CNC(=O)c1cccc(Nc2ncnc(N3CCC(OCc4ccc(F)c(F)c4)CC3)n2)c1 [Example 228] |
| 0.47 µM |  | CNC(=O)c1cccc(Nc2ncnc(N3CCN(c4ccc(C)cc4)CC3)n2)c1 [Example 34] |
|  | 19.7 µM | CNC(=O)c1cc(Nc2ncnc(N3CC(Oc4ccc(F)cc4)C3)n2)ccc1C [Example 266] |
